# According to paper PMC13267113 (npj Drug Discovery, 2025):
# Assays:
# [1] = test system: U2OS (human, osteosarcoma); test: MTT cytotoxicity U2OS; type: cell-based; conditions: 72 h, n = 3
# Description: (§1) Cells were washed with PBS and 0.5 mL trypsin was added. Afterwards, cells were incubated for 5 min before adding 10 mL medium containing 10% FBS. Per well, 120 µL cell suspension (5 × 10^4 cells/mL) was seeded in transparent 96-well cell bind plates and incubated for 2 h (37 °C, 5% CO2). A dilution series (1:3) of test compounds was prepared in respective media containing 10% FBS and added (60 µL) to the prepared cell plate. Cells were incubated for a further 72 h (37 °C, 5% CO2). Next, 20 µL MTT (5 mg/mL in PBS) was added to each well and incubated for 2 h (37 °C, 5% CO2). The wells were emptied and 100 µL isopropanol/10 N HCl (1000:4) per well was added.
# (§2) The plates were analyzed by measuring the absorbance at 570 nm (plate reader Infinite® 200 Pro, Tecan). After normalization of data to the respective solvent controls, the calculated percentage of growth inhibition was plotted using GraphPad Prism software (version 10.0.2).
# HCT116 (human, colon) = test: MTT cytotoxicity HCT116; type: cell-based; conditions: HCT-116, 72 h, n = 3
# Description: (§3) All cell types were cultivated at 37 °C with 5% CO2. HepG2, HEK293, HCT116, CHO-K1, HeLa-CCL-2 and Huh-7.5 were purchased from ATCC. The respective cell media (Gibco) were supplemented with 10% FBS (Gibco) before usage. Cells were used between passages #5 and #30. To obtain biological repeats, cells were split separately for at least two passages.
# as §1, §2
# CHO-K1 (hamster, ovary) = test: MTT cytotoxicity CHO-K1; type: cell-based; conditions: CHO-K1, 72 h, n = 3
# Description: as §3, §1, §2
# U-2 OS cells = test: Mitochondrial superoxide formation (MitoSOX Red); type: cell-based, human; conditions: n = 6
# Description: CYS was tested for its potential to induce oxidative stress in U-2 OS cells. Therefore, 120 µL of a cell suspension in McCoy’s (+10% FBS) containing 5 × 10^4 cells/mL were seeded into black 96-well imaging plate (BD Falcon). The plates were incubated for two days (37 °C, 5% CO2) until the cells reached approximately 70% confluence. Subsequently, the cells were washed with HBSS buffer, prior to adding CYS (20 µM) and the ROS inducer menadione (50 µM) as positive control, along with the staining solution (HBSS, calcium, magnesium, 5 µM MitoSOX red and 10 µg/mL Hoechst (Thermo)). To check for ROS protective properties, menadione (50 µM) was added directly to the staining solution. […] Afterwards, the cells were washed twice with HBSS. The cells were imaged using an automated fluorescence microscope (Celldiscoverer 7, Zeiss) (excitation: […]) to analyze the fluorescence intensity of the superoxide tracker MitoSOX red. The experiment was carried out with six replicates per condition. Quantification was done by high-content image analysis using the ZEN software (version 3.4, blue edition, Zeiss). Data presentation was done using GraphPad Prism (version 10.0.3) with ordinary one-way ANOVA including multiple comparisons to the control group for statistical analysis of the sample without ROS induction via menadione in the staining solution. Multiple unpaired t test was used to compare samples for ROS protective properties, which were incubated with menadione in the staining solution.
# HeLa (human, cervix) = test: MTT cytotoxicity HeLa; type: cell-based; conditions: 72 h, n = 3
# Description: as §3, §1, §2
# Mouse plasma stability = type: in vitro ADME; conditions: read-out: Mouse plasma t1/2
smiles,measurement,setting,value
CO[C@H](C(N)=O)[C@H](NC(=O)c1ccc(NC(=O)c2ccc(C#N)cc2)cc1)C(=O)Nc1ccc(C(=O)Nc2ccc(C(=O)Nc3ccc(C(=O)O)cc3)c(O)c2OC(C)C)cc1 [CN-861-2],IC50,[1],> 20 µM
same,IC50,"HCT116 (human, colon)",> 20 µM
same,IC50,"CHO-K1 (hamster, ovary)",> 20 µM
same,basal superoxide radical levels vs DMSO control,"U-2 OS cells; 20 µM, MitoSOX Red, no menadione",decrease of superoxide radical levels
same,menadione-induced superoxide formation on co-treatment,U-2 OS cells; CYS 20 µM + menadione 50 µM,slight yet statistically significant increase in superoxide production
same,IC50,"HeLa (human, cervix)",> 37 µM
same,half-life,Mouse plasma stability,> 4 h
